Measurements from PubChem BioAssay (NCI).
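Grown in 96-well plates, cells were treated for 48 hours with each compound at five concentrations. Insufficient inhibition: endpoint recorded as highest concentration tested. GI50: concentration for 50% inhibition of growth. TGI is the concentration that stops growth completely.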

Experiments:
Assay in all cases: inhibition of tumour cell growth, NCI panel, 48 h
HOP-92 NSCLC = test system: HOP-92 NSCLC
KM12 colon = test system: KM12 colon
A549 NSCLC = test system: A549 NSCLC
HCC-2998 colon = test system: HCC-2998 colon
NCI-H226 lung = test system: NCI-H226 lung
786-0 renal = test system: 786-0 renal
MOLT-4 leukemia = test system: MOLT-4 leukemia
OVCAR-8 ovarian = test system: OVCAR-8 ovarian
OVCAR-5 ovarian = test system: OVCAR-5 ovarian
SW-620 colon = test system: SW-620 colon
HCT-15 colon = test system: HCT-15 colon
COLO 205 colon = test system: COLO 205 colon
SK-OV-3 ovarian = test system: SK-OV-3 ovarian
SF-295 CNS = test system: SF-295 CNS
UO-31 renal = test system: UO-31 renal
SK-MEL-2 melanoma = test system: SK-MEL-2 melanoma
HS 578T breast = test system: HS 578T breast
RXF 393 renal = test system: RXF 393 renal
EKVX NSCLC = test system: EKVX NSCLC
DU-145 prostate = test system: DU-145 prostate
NCI/ADR-RES ovarian = test system: NCI/ADR-RES ovarian
HOP-62 NSCLC = test system: HOP-62 NSCLC
A498 renal = test system: A498 renal
K-562 leukemia = test system: K-562 leukemia
ACHN renal = test system: ACHN renal
UACC-62 melanoma = test system: UACC-62 melanoma
MDA-MB-231 breast = test system: MDA-MB-231 breast
NCI-H460 lung = test system: NCI-H460 lung
MDA-MB-435 = test system: MDA-MB-435
CAKI-1 renal = test system: CAKI-1 renal
OVCAR-4 ovarian = test system: OVCAR-4 ovarian
SK-MEL-5 melanoma = test system: SK-MEL-5 melanoma
SNB-19 CNS = test system: SNB-19 CNS
MALME-3M melanoma = test system: MALME-3M melanoma
HT29 colon = test system: HT29 colon
TK-10 renal = test system: TK-10 renal
MCF7 breast = test system: MCF7 breast
NCI-H522 lung = test system: NCI-H522 lung
SF-268 CNS = test system: SF-268 CNS
SR leukemia = test system: SR leukemia
OVCAR-3 ovarian = test system: OVCAR-3 ovarian
SNB-75 CNS = test system: SNB-75 CNS
NCI-H23 lung = test system: NCI-H23 lung
U251 CNS = test system: U251 CNS
SN12C renal = test system: SN12C renal
SK-MEL-28 melanoma = test system: SK-MEL-28 melanoma
BT-549 breast = test system: BT-549 breast
IGROV1 ovarian = test system: IGROV1 ovarian
SF-539 CNS = test system: SF-539 CNS
M14 melanoma = test system: M14 melanoma
T-47D breast = test system: T-47D breast
UACC-257 melanoma = test system: UACC-257 melanoma
HL-60(TB) leukemia = test system: HL-60(TB) leukemia
CCRF-CEM leukemia = test system: CCRF-CEM leukemia
LOX IMVI melanoma = test system: LOX IMVI melanoma
HCT-116 colon = test system: HCT-116 colon
PC-3 prostate = test system: PC-3 prostate
RPMI-8226 leukemia = test system: RPMI-8226 leukemia

## COc1cc(C(=O)c2c(-c3ccccc3)oc3c(OC)cccc23)cc(OC)c1O
HOP-92 NSCLC
  GI50: 276 nM
  TGI: 2250 nM
KM12 colon
  GI50: 450 nM
  TGI: > 51200 nM
A549 NSCLC
  GI50: 751 nM
  TGI: > 100000 nM
HCC-2998 colon
  GI50: 1960 nM
  TGI: > 100000 nM
NCI-H226 lung
  GI50: 3100 nM
  TGI: > 100000 nM
786-0 renal
  GI50: 630 nM
  TGI: 14.3 µM
MOLT-4 leukemia
  GI50: 605 nM
  TGI: > 100000 nM
OVCAR-8 ovarian
  GI50: 631 nM
  TGI: > 100000 nM
OVCAR-5 ovarian
  GI50: 3220 nM
  TGI: > 100000 nM
SW-620 colon
  GI50: 454 nM
  TGI: > 100000 nM
HCT-15 colon
  GI50: 455 nM
  TGI: > 100000 nM
COLO 205 colon
  GI50: 2050 nM
  TGI: 5230 nM
SK-OV-3 ovarian
  GI50: 765 nM
  TGI: > 100000 nM
SF-295 CNS
  GI50: 569 nM
  TGI: > 21500 nM
UO-31 renal
  GI50: 648 nM
  TGI: > 100000 nM
SK-MEL-2 melanoma
  GI50: 2280 nM
  TGI: > 100 µM
HS 578T breast
  GI50: 405 nM
RXF 393 renal
  GI50: 313 nM
  TGI: 2000 nM
EKVX NSCLC
  GI50: 876 nM
  TGI: > 100000 nM
DU-145 prostate
  GI50: 554 nM
  TGI: > 100000 nM
NCI/ADR-RES ovarian
  GI50: 454 nM
  TGI: > 100000 nM
HOP-62 NSCLC
  GI50: 641 nM
  TGI: > 100000 nM
A498 renal
  GI50: 378 nM
  TGI: 3.53 µM
K-562 leukemia
  GI50: 328 nM
  TGI: > 100000 nM
ACHN renal
  GI50: 664 nM
  TGI: > 100000 nM
UACC-62 melanoma
  GI50: 583 nM
  TGI: > 100000 nM
MDA-MB-231 breast
  GI50: 1500 nM
  TGI: 16.1 µM
NCI-H460 lung
  GI50: 401 nM
  TGI: > 22100 nM
MDA-MB-435
  GI50: 162 nM
  TGI: 459 nM
CAKI-1 renal
  GI50: 404 nM
  TGI: 26.7 µM
OVCAR-4 ovarian
  GI50: 2820 nM
  TGI: > 100000 nM
SK-MEL-5 melanoma
  GI50: 651 nM
  TGI: 8.62 µM
SNB-19 CNS
  GI50: 1760 nM
  TGI: > 100000 nM
MALME-3M melanoma
  GI50: 509 nM
  TGI: > 100000 nM
HT29 colon
  GI50: 3150 nM
  TGI: > 33700 nM
TK-10 renal
  GI50: 15 µM
  TGI: > 81900 nM
MCF7 breast
  GI50: 351 nM
  TGI: > 100000 nM
NCI-H522 lung
  GI50: 269 nM
  TGI: 5180 nM
SF-268 CNS
  GI50: 1040 nM
  TGI: > 100000 nM
SR leukemia
  GI50: 339 nM
  TGI: 53 µM
OVCAR-3 ovarian
  GI50: 302 nM
  TGI: 1660 nM
SNB-75 CNS
  GI50: 184 nM
  TGI: 605 nM
NCI-H23 lung
  GI50: 864 nM
  TGI: > 100000 nM
U251 CNS
  GI50: 507 nM
  TGI: > 100000 nM
SN12C renal
  GI50: 1460 nM
  TGI: > 100000 nM
SK-MEL-28 melanoma
  GI50: 4090 nM
  TGI: > 100 µM
BT-549 breast
  GI50: 1190 nM
  TGI: 7.31 µM
IGROV1 ovarian
  GI50: 654 nM
  TGI: > 100000 nM
SF-539 CNS
  GI50: 311 nM
  TGI: 2640 nM
M14 melanoma
  GI50: 351 nM
  TGI: > 100000 nM
T-47D breast
  GI50: 1200 nM
  TGI: > 100000 nM
UACC-257 melanoma
  GI50: 63.5 µM
  TGI: > 100000 nM
HL-60(TB) leukemia
  GI50: 284 nM
  TGI: 1020 nM
CCRF-CEM leukemia
  GI50: 414 nM
  TGI: > 100000 nM
LOX IMVI melanoma
  GI50: 608 nM
  TGI: > 100000 nM
HCT-116 colon
  GI50: 563 nM
  TGI: > 100000 nM
PC-3 prostate
  GI50: 450 nM
  TGI: > 37200 nM
RPMI-8226 leukemia
  GI50: 403 nM
  TGI: 5.75 µM

## CCOC(=O)c1ccc2c(c1)[n+](=O)c(C(=O)C1CCCS1)c(C(F)(F)F)n2[O-] (stereo unspecified)
HOP-92 NSCLC
  GI50: 208 nM
  TGI: 1170 nM
KM12 colon
  GI50: 389 nM
  TGI: 975 nM
A549 NSCLC
  GI50: 274 nM
  TGI: 764 nM
HCC-2998 colon
  GI50: 675 nM
  TGI: 2000 nM
NCI-H226 lung
  GI50: 835 nM
  TGI: 2650 nM
786-0 renal
  GI50: 406 nM
  TGI: 1.46 µM
MOLT-4 leukemia
  GI50: 237 nM
  TGI: 519 nM
OVCAR-8 ovarian
  GI50: 239 nM
  TGI: 597 nM
OVCAR-5 ovarian
  GI50: 1420 nM
  TGI: 2760 nM
SW-620 colon
  GI50: 202 nM
  TGI: 490 nM
HCT-15 colon
  GI50: 264 nM
  TGI: 824 nM
COLO 205 colon
  GI50: 217 nM
  TGI: 459 nM
SK-OV-3 ovarian
  GI50: 1370 nM
  TGI: 2670 nM
SF-295 CNS
  GI50: 749 nM
  TGI: 2070 nM
UO-31 renal
  GI50: 156 nM
  TGI: 303 nM
SK-MEL-2 melanoma
  GI50: 1600 nM
  TGI: 3.16 µM
HS 578T breast
  GI50: 2120 nM
  TGI: 6.35 µM
RXF 393 renal
  GI50: 603 nM
  TGI: 1860 nM
EKVX NSCLC
  GI50: 1190 nM
  TGI: 2610 nM
DU-145 prostate
  GI50: 428 nM
  TGI: 1050 nM
NCI/ADR-RES ovarian
  GI50: 271 nM
  TGI: 797 nM
HOP-62 NSCLC
  GI50: 350 nM
  TGI: 820 nM
A498 renal
  GI50: 1550 nM
  TGI: 3.07 µM
K-562 leukemia
  GI50: 197 nM
  TGI: 437 nM
ACHN renal
  GI50: 172 nM
  TGI: 315 nM
UACC-62 melanoma
  GI50: 1150 nM
  TGI: 2450 nM
MDA-MB-231 breast
  GI50: 490 nM
  TGI: 1.78 µM
NCI-H460 lung
  GI50: 236 nM
  TGI: 588 nM
MDA-MB-435
  GI50: 330 nM
  TGI: 987 nM
CAKI-1 renal
  GI50: 189 nM
  TGI: 0.429 µM
OVCAR-4 ovarian
  GI50: 220 nM
  TGI: 534 nM
SK-MEL-5 melanoma
  GI50: 964 nM
  TGI: 2.31 µM
SNB-19 CNS
  GI50: 1250 nM
  TGI: 2570 nM
MALME-3M melanoma
  GI50: 581 nM
  TGI: 1980 nM
HT29 colon
  GI50: 172 nM
  TGI: 320 nM
TK-10 renal
  GI50: 0.288 µM
  TGI: 765 nM
MCF7 breast
  GI50: 261 nM
  TGI: 738 nM
NCI-H522 lung
  GI50: 187 nM
  TGI: 443 nM
SF-268 CNS
  GI50: 197 nM
  TGI: 458 nM
SR leukemia
  GI50: 208 nM
  TGI: 0.428 µM
OVCAR-3 ovarian
  GI50: 275 nM
  TGI: 713 nM
SNB-75 CNS
  GI50: 1130 nM
  TGI: 2330 nM
NCI-H23 lung
  GI50: 830 nM
  TGI: 2200 nM
U251 CNS
  GI50: 169 nM
  TGI: 315 nM
SN12C renal
  GI50: 448 nM
  TGI: 1810 nM
SK-MEL-28 melanoma
  GI50: 1630 nM
  TGI: 3.01 µM
BT-549 breast
  GI50: 327 nM
  TGI: 1.08 µM
IGROV1 ovarian
  GI50: 198 nM
  TGI: 417 nM
SF-539 CNS
  GI50: 722 nM
  TGI: 2040 nM
M14 melanoma
  GI50: 388 nM
  TGI: 1120 nM
T-47D breast
  GI50: 493 nM
  TGI: 1920 nM
UACC-257 melanoma
  GI50: 0.474 µM
  TGI: 1600 nM
HL-60(TB) leukemia
  GI50: 258 nM
  TGI: 643 nM
CCRF-CEM leukemia
  GI50: 233 nM
  TGI: 550 nM
LOX IMVI melanoma
  GI50: 161 nM
  TGI: 308 nM
HCT-116 colon
  GI50: 173 nM
  TGI: 340 nM
PC-3 prostate
  GI50: 248 nM
  TGI: 716 nM
RPMI-8226 leukemia
  GI50: 702 nM
  TGI: 2.08 µM
